Experimental findings from PubChem BioAssay AID1918995 (Molecular Pharmacology Branch, DTP, NCI, 2023) are described below.

This test concerns 324938-238-R-J1-PDC complex spheroid growth, % test/control. Briefly: Anticancer human tumor 324938-238-R-J1-PDC patient-derived bladder carcinoma cell line growth inhibition [AhR]. The settings on record: for viability, T/C: stronger effect = lower value; for IC50: curve of compound. From the text:
Multicellular complex tumor spheroid response to aryl hydrocarbon receptor antagonists in combination with a variety of drugs and investigational agents in selected tumor cell lines
The current study was undertaken to assess response to aryl hydrocarbon receptor antagonists in combination with standard-of-care drugs and investigational agents in solid tumor complex spheroid models. Complex spheroids include a stromal component modeled by human endothelial cells (HUVEC) and fibroblasts modeled by human mesenchymal stem cells (MSCs). The concentration ranges selected for each drug and investigational agent were based upon clinically achievable concentrations if the clinical Cmax of the agent was known.
Compounds. The drugs and investigational agents: BAY 2416964 (NSC825713), GNF351 (NSC835774), CH-223191 (NSC835775), CPI-455 (NSC825282), aza-TdCyd (NSC777586), decitabine (NSC127716), belinostat (NSC758774), entinostat (NSC756642), pevonedistat (NSC761192), tazemetostat (NSC777109), talazoparib (NSC765396), olaparib (NSC753686), selinexor (NSC780203), nedisertib (M3814, NSC802822), bortezomib (NSC756655), venetoclax (NSC766270), doxorubicin (NSC123127), elimusertib (BAY189344, NSC800525), ceralasertib (AZD6738, NSC777638), TAK-243 (NSC785004), alisertib (NSC759677), etoposide (NSC141540), topotecan (NSC609699), eribulin (NSC707389), gemcitabine (NSC613327), carboplatin (NSC241240), cisplatin (NSC119875), and SN-38 (NSC673596) were obtained from the National Cancer Institute (NCI) Developmental Therapeutics Program Chemical Repository (32). The FDA-approved anticancer drug set is available from the Developmental Therapeutics Program at https://dtp.cancer.gov/organization/dscb/obtaining/available plates.htm. […] The stock solutions were prepared in dimethyl sulfoxide (DMSO, Sigma-Aldrich, St. Louis, MO, cat. D2650), except for the platinum compounds which were prepared in saline (Quality Biological, Gaithersburg, MD, cat. 114-055-101), at 800-fold the tested concentration and stored at -70 degrees C prior to their use. All drugs and investigational agents were tested over a range starting from a high concentration at or near the clinical Cmax and decreasing in half-log increments. If the clinical Cmax for an agent had not been determined, the highest concentration tested was 10 microM (Table 1).
Cell Culture. All cells were maintained in an incubator at 37 degrees C and 5% CO2 with 95% humidity. The PDC lines were cultured according to standard operating procedures established by the NCI PDMR (https://pdmr.cancer.gov). Briefly, all PDCs were thawed and cultured in Matrigel-coated flasks prepared with a working solution of 1X Ham's F-12 nutrient mix, without supplementation (Invitrogen, Waltham, MA, cat. 11765054), 100 U/mL penicillin-streptomycin (Invitrogen, cat. 15140122), and 2.5% Matrigel (Corning Inc., Corning, NY, cat. 354248) for the first three passages. All PDCs were cultured in complete DMEM/F-12 media containing advanced DMEM/F-12 (Invitrogen, cat. 12634028), 4.9% defined fetal bovine serum, heat inactivated (HyClone Laboratories Inc., Logan, UT, cat. SH30070.03HI), 389 ng/mL hydrocortisone (Sigma-Aldrich, cat. H4001), 9.7 ng/mL human EGF recombinant protein (Invitrogen, cat. PHG0313), 23.4 microg/mL adenine (Sigma-Aldrich, cat. A2786), 97.3 U/mL penicillin-streptomycin (Invitrogen, cat. 15140122), 1.9 mM L-glutamine (Invitrogen, cat. 25030081), and 9.7 microM Y-27632 dihydrochloride (Tocris Bioscience, Bristol, United Kingdom, cat. 1254). The PDCs were cultured in complete DMEM/F12 media without 10 microM Y-27632 dihydrochloride for at least two passages prior to the screen. The established cell lines NCI-H1341 and […] were cultured in DMEM/F-12, HEPES (Invitrogen, cat. 11330032), 5% defined fetal bovine serum (HyClone Laboratories Inc., cat. SH30070.03), ITS premix universal culture supplement [insulin (5 microg/mL), transferrin (5 microg/mL), and selenious acid (5 ng/mL)] […]

Where “and” joins values, the source holds several entries; their conditions need not be identical. Identical values can stand only once.
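Note: spheroids exposed to agents for seven days before viability read.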

For orientation: viability, T/C means the ratio of treated to control. As to `COc1cccc2c1C(=O)c1c(O)c3c(c(O)c1C2=O)CC(O)(C(=O)CO)CC3OC1CC(N)C(O)C(C)O1` (stereo not given), the viability, T/C (compound 0.0316 µM) was 69.2% and 39.5% and 37.4%; the viability, T/C (compound 0.1 µM) was 86% and 31.1% and 26.5%; the viability, T/C (compound 0.316 µM) was 53.9% and 16.3% and 19.6%; the viability, T/C (compound 1 µM) is 2.48% and 4.61% and 4.55%; the viability, T/C (compound 3.16 µM) was 1.18% and 0.26% and 0.23%; the viability, T/C (compound 10 µM) was 0.6% and 0.23% and 0.35%.
Usually IC50 stands for the concentration at which inhibition is half-maximal. Regarding `Cn1ncnc1C1c2n[nH]c(=O)c3cc(F)cc(c23)NC1c1ccc(F)cc1` (stereo not given), the IC50 was > 100 nM and 78.1 nM. The viability, T/C (compound 0.000316 µM) is 107% and 101% and 111%. The viability, T/C (compound 0.001 µM) was 100% and 105% and 98%. In addition, where the note is “compound 0.00316 µM”, the viability, T/C is 92.3% and 101% and 90.6%. Moreover, the viability, T/C (compound 0.01 µM) is 97.1% and 74.3% and 87.5%. Besides, where the note is “compound 0.0316 µM”, the viability, T/C is 98% and 79.1% and 61.1%. Also, for the setting “compound 0.1 µM”, the viability, T/C was 89.5% and 65.1% and 46.1%.
Regarding `NS(=O)(=O)OCC1CC(n2ccc3c(NC4CCc5ccccc54)ncnc32)CC1O` (stereo not given), the IC50 was 1860 nM and 1750 nM and 616 nM. Also, the viability, T/C (compound 0.0316 µM) was 120% and 104% and 97.8%. For the same molecule, the viability, T/C (compound 0.1 µM) is 79.3% and 98% and 80.5%. For the setting “compound 0.316 µM”, the viability, T/C was 97.1% and 99.1% and 65.3%. The viability, T/C (compound 1 µM) is 64.7% and 67.5% and 40.5%. Also, the viability, T/C (compound 3.16 µM) is 30.8% and 30.9% and 26.9%. Moreover, the viability, T/C (compound 10 µM) is 25.3% and 31.1% and 29.9%.
For the molecule `Nc1ccccc1NC(=O)c1ccc(CNC(=O)OCc2cccnc2)cc1`, the IC50 was 1310 nM and 2200 nM and 3500 nM. Also, the viability, T/C (compound 0.0316 µM) is 90% and 112% and 121%. Besides, where the note is “compound 0.1 µM”, the viability, T/C was 80.4% and 111% and 110%. In addition, the viability, T/C (compound 0.316 µM) is 57.2% and 107% and 97.9%. The viability, T/C (compound 1 µM) was 61.7% and 69% and 70.3%. Besides, the viability, T/C (compound 3.16 µM) is 37.1% and 43.2% and 58.1%.
Regarding `Nc1ccn(C2OC(CO)C(O)C2(F)F)c(=O)n1` (stereo not given), the viability, T/C (compound 0.0316 µM) was 68.2% and 32.2% and 53.2%; the viability, T/C (compound 0.1 µM) is 98.7% and 26% and 26.2%; the viability, T/C (compound 0.316 µM) is 79.8% and 18.3% and 16.4%; the viability, T/C (compound 1 µM) was 79.5% and 19.9% and 15.4%; the viability, T/C (compound 3.16 µM) is 87.5% and 17.6% and 11.5%; the viability, T/C (compound 10 µM) was 87.3% and 11.4% and 10.1%.
Consider `Nc1ncn(C2CC(O)C(CO)O2)c(=O)n1` (stereo not given), for which the IC50 is over 1000 nM. Further, under “compound 0.00316 µM”, the viability, T/C is 69.8% and 99.6% and 102%. The viability, T/C (compound 0.01 µM) is 96.2% and 113% and 94.2%. In addition, the viability, T/C (compound 0.0316 µM) is 82.3% and 98.6% and 85.2%. For the setting “compound 0.1 µM”, the viability, T/C is 83.7% and 98.3% and 96.2%. Also, for the setting “compound 0.316 µM”, the viability, T/C is 128% and 80.2% and 81.7%. In addition, where the note is “compound 1 µM”, the viability, T/C was 92.8% and 72% and 68.3%.
With `Nc1ncn(C2CC(O)C(CO)S2)c(=O)n1` (stereo not given), the IC50 is > 300 nM and 215 nM. Also, the viability, T/C (compound 0.000949 µM) is 106% and 103% and 93.4%. For the same molecule, where the note is “compound 0.003 µM”, the viability, T/C is 86.6% and 105% and 95.5%. The viability, T/C (compound 0.00949 µM) was 86.8% and 106% and 94.1%. In addition, under “compound 0.03 µM”, the viability, T/C was 116% and 92.5% and 88.8%. Besides, the viability, T/C (compound 0.0949 µM) is 96.4% and 71.2% and 66.3%. Also, under “compound 0.3 µM”, the viability, T/C was 138% and 60.1% and 43.4%.
Turning to `O=C(C=Cc1cccc(S(=O)(=O)Nc2ccccc2)c1)NO`, the IC50 was 2790 nM and 2980 nM and 2550 nM. Also, the viability, T/C (compound 0.0316 µM) is 100% and 110% and 114%. Also, the viability, T/C (compound 0.1 µM) is 92% and 98.7% and 110%. Moreover, the viability, T/C (compound 0.316 µM) was 109% and 89.2% and 81.5%. Also, where the note is “compound 1 µM”, the viability, T/C was 85.5% and 66.9% and 72.5%. Also, the viability, T/C (compound 3.16 µM) was 46% and 49.9% and 51.9%.
Turning to `O=C(C=Cn1cnc(-c2cc(C(F)(F)F)cc(C(F)(F)F)c2)n1)NNc1cnccn1`, the IC50 is 681 nM and 184 nM and 92.1 nM. In addition, for the setting “compound 0.00949 µM”, the viability, T/C was 129% and 95.9% and 85.8%. Moreover, the viability, T/C (compound 0.03 µM) was 100% and 95.8% and 75.1%. Further, where the note is “compound 0.0949 µM”, the viability, T/C is 71.5% and 69.7% and 47.7%. For the same molecule, the viability, T/C (compound 0.3 µM) is 58.5% and 34.4% and 27%. Moreover, where the note is “compound 0.949 µM”, the viability, T/C was 45.4% and 16.9% and 15.9%.
On to `O=C(c1cc(Cc2n[nH]c(=O)c3ccccc23)ccc1F)N1CCN(C(=O)C2CC2)CC1`, for which the IC50 was > 10000 nM and 9370 nM. Where the note is “compound 0.0316 µM”, the viability, T/C is 115% and 100% and 97.8%. Moreover, the viability, T/C (compound 0.1 µM) is 73.1% and 102% and 96.9%. Further, under “compound 0.316 µM”, the viability, T/C is 66% and 103% and 82%. For the same molecule, under “compound 1 µM”, the viability, T/C is 86.6% and 110% and 88.1%. Further, the viability, T/C (compound 3.16 µM) is 69.2% and 90.5% and 77.8%. Moreover, for the setting “compound 10 µM”, the viability, T/C is 79% and 74.1% and 47.3%.
